In the supplement of paper PMC10307832:

Legend:
Test in all cases: relative viability (nuclei count vs DMSO), 5 days (fraction); higher = more cells survive
QS11 + Pictilisib = compound: C1CC2=C(C1)C=C(C=C2)OC3=NC(=C4C(=N3)N(C=N4)CC5=CC=C(C=C5)C6=CC=CC=C6)N[C@@H](CC7=CC=CC=C7)CO [QS11] + CS(=O)(=O)N1CCN(Cc2cc3nc(-c4cccc5[nH]ncc45)nc(N4CCOCC4)c3s2)CC1 [Pictilisib] (partner 1 µM)
Procedure, shortened: (§1)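 Medians of duplicate plates are given as relative viability. That measure is the nuclei count in treated wells divided by the count in vehicle wells. Counts were taken on 4× images of lung cancer cell lines in 1536-well plates, 5 days after pin-tool dosing the day after seeding with one drug alone or a fixed anchor-drug dose plus five library-drug doses (not always all listed) in √10 steps.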

QS11 + Palbociclib = compound: C1CC2=C(C1)C=C(C=C2)OC3=NC(=C4C(=N3)N(C=N4)CC5=CC=C(C=C5)C6=CC=CC=C6)N[C@@H](CC7=CC=CC=C7)CO [QS11] + CC(=O)c1c(C)c2cnc(Nc3ccc(N4CCNCC4)cn3)nc2n(C2CCCC2)c1=O [Palbociclib] (partner 0.5 µM)
Procedure, shortened: as §1

AZ628 + Lapatinib = compound: CC1=C(C=C(C=C1)NC(=O)C2=CC(=CC=C2)C(C)(C)C#N)NC3=CC4=C(C=C3)N=CN(C4=O)C [AZ628] + CS(=O)(=O)CCNCc1ccc(-c2ccc3ncnc(Nc4ccc(OCc5cccc(F)c5)c(Cl)c4)c3c2)o1 [Lapatinib] (partner 2 µM)
Procedure, shortened: as §1

AZ628 + Olaparib = compound: CC1=C(C=C(C=C1)NC(=O)C2=CC(=CC=C2)C(C)(C)C#N)NC3=CC4=C(C=C3)N=CN(C4=O)C [AZ628] + O=C(c1cc(Cc2n[nH]c(=O)c3ccccc23)ccc1F)N1CCN(C(=O)C2CC2)CC1 [Olaparib] (partner 8 µM)
Procedure, shortened: as §1

| Cell Line | relative viability (QS11 + Pictilisib; first compound 0.08 µM) | relative viability (QS11 + Pictilisib; first compound 0.253 µM) | relative viability (QS11 + Pictilisib; first compound 0.8 µM) | relative viability (QS11 + Pictilisib; first compound 2.53 µM) | relative viability (QS11 + Pictilisib; first compound 8 µM) | relative viability (QS11 + Palbociclib; first compound 0.08 µM) | relative viability (QS11 + Palbociclib; first compound 0.253 µM) | relative viability (QS11 + Palbociclib; first compound 0.8 µM) | relative viability (QS11 + Palbociclib; first compound 2.53 µM) | relative viability (QS11 + Palbociclib; first compound 8 µM) | relative viability (AZ628 + Lapatinib; first compound 0.08 µM) | relative viability (AZ628 + Lapatinib; first compound 0.253 µM) | relative viability (AZ628 + Lapatinib; first compound 0.8 µM) | relative viability (AZ628 + Lapatinib; first compound 2.53 µM) | relative viability (AZ628 + Lapatinib; first compound 8 µM) | relative viability (AZ628 + Olaparib; first compound 0.08 µM) | relative viability (AZ628 + Olaparib; first compound 0.253 µM) | relative viability (AZ628 + Olaparib; first compound 0.8 µM) | relative viability (AZ628 + Olaparib; first compound 2.53 µM) | relative viability (AZ628 + Olaparib; first compound 8 µM) |
| --- | --- | --- | --- | --- | --- | --- | --- | --- | --- | --- | --- | --- | --- | --- | --- | --- | --- | --- | --- | --- |
| NCI-H661 | 0.424 | 0.397 | 0.407 | 0.376 | 0.383 | 0.379 | 0.374 | 0.332 | 0.402 | 0.34 | 0.401 | 0.502 | 0.435 | 0.498 | 0.464 | 0.748 | 0.702 | 0.699 | 0.727 | 0.644 |
| NCI-H1975 | 0.289 | 0.234 | 0.327 | 0.364 | 0.478 | 0.555 | 0.531 | 0.58 | 0.74 | 0.733 | 0.866 | 0.723 | 0.85 | 0.921 | 0.513 | 0.613 | 0.674 | 0.616 | 0.749 | 0.392 |
| NCI-H1944 | 0.331 | 0.346 | – | 0.353 | 0.39 | 0.312 | 0.344 | – | 0.275 | 0.254 | 0.855 | 0.892 | 0.831 | 0.747 | 0.701 | 0.416 | 0.42 | 0.411 | 0.329 | 0.365 |
| SK-LU-1 | 0.455 | 0.679 | 0.534 | 0.552 | 0.531 | 0.345 | 0.419 | 0.336 | 0.365 | 0.376 | 0.498 | 0.705 | 0.755 | 0.834 | 0.603 | 0.376 | 0.37 | 0.44 | 0.379 | 0.315 |
| NCI-H1755 | 0.466 | 0.404 | 0.41 | 0.408 | 0.393 | 0.461 | 0.476 | 0.399 | 0.402 | 0.427 | 0.99 | 0.951 | 0.96 | 1.04 | 1.02 | 0.917 | 0.869 | 0.86 | 0.832 | 0.845 |
| NCI-H2342 | – | – | – | – | – | 0.52 | 0.541 | 0.515 | 0.474 | 0.491 | – | – | – | – | – | 0.447 | 0.401 | 0.479 | 0.449 | 0.431 |
| NCI-H1703 | 0.281 | 0.242 | 0.264 | 0.253 | 0.344 | – | – | – | – | – | 0.763 | 0.393 | 0.389 | 0.246 | 0.286 | 0.239 | 0.216 | 0.216 | 0.178 | 0.177 |
| NCI-H1563 | 0.718 | 0.703 | 0.68 | 0.586 | 0.617 | – | – | – | – | – | 1.11 | 0.965 | 1.07 | 0.868 | 0.939 | – | – | – | – | – |
| NCI-H1299 | 0.725 | 0.791 | 0.648 | 0.736 | 0.567 | – | – | – | – | – | 1.11 | 1.2 | 1.17 | 1.23 | 0.945 | 1.12 | 1.18 | 1.12 | 1.27 | 0.628 |
| NCI-H522 | – | – | – | – | – | 0.766 | 0.841 | 0.987 | 1.15 | 1.19 | – | – | – | – | – | 0.643 | 0.691 | 0.602 | 0.689 | 0.522 |
| NCI-H1648 | – | – | – | – | – | 0.279 | 0.265 | 0.331 | 0.294 | 0.294 | – | – | – | – | – | 1.09 | 0.62 | 1.01 | 0.767 | 0.556 |
| A549 | 0.623 | 0.558 | 0.396 | 0.41 | 0.208 | – | – | – | – | – | 1.13 | 0.839 | 0.676 | 0.835 | 0.536 | 0.299 | 0.28 | 0.495 | 0.348 | 0.199 |
| NCI-H596 | 0.382 | 0.189 | 0.516 | 0.404 | 0.438 | – | – | – | – | – | 1.03 | 1.08 | 1.11 | 1.08 | 1.27 | 0.76 | 0.793 | 0.703 | 0.799 | 0.651 |
| EBC-1 | 0.331 | 0.266 | 0.404 | 0.454 | 0.478 | – | – | – | – | – | 0.219 | 0.205 | 0.251 | 0.22 | 0.199 | 0.609 | 0.615 | 0.737 | 0.684 | 0.314 |
| IA-LM | 0.387 | 0.343 | – | 0.257 | 0.354 | – | – | – | – | – | 0.881 | 0.831 | 0.315 | 0.373 | 0.2 | 1.03 | 0.815 | 0.846 | 0.875 | 0.363 |
| ChaGo-K-1 | – | 0.841 | 0.882 | 1.24 | 1.05 | – | 0.955 | 1.02 | 1.02 | 1.07 | – | – | – | – | – | 0.456 | 0.389 | 0.422 | 0.452 | 0.453 |
| LCLC-103H | 0.636 | 0.543 | 0.591 | 0.74 | 0.609 | 0.498 | 0.506 | – | 0.535 | 0.481 | – | – | – | – | – | 0.797 | 0.77 | 0.761 | 0.779 | 0.769 |
| NCI-H441 | 0.472 | 0.529 | 0.501 | 0.5 | 0.608 | 0.213 | 0.244 | 0.255 | 0.201 | 0.227 | – | – | – | – | – | 0.547 | 0.532 | 0.738 | 0.699 | 0.542 |
